Measured values from PMC12641067 (Clinical Pharmacology and Therapeutics, 2025).
Several values for one entry are separate records, joined by “and”; a condition that tells them apart may be missing. Identical values can stand only once. Counter-ions that a name gives are not always drawn. Like-named read-outs stand apart in the source and are kept apart here.

How the values were obtained:
[1] = baseline and interaction profile after rifampicin administration; cited from earlier work
[2] = Synthesis rate of precursor bile acids and inferred GCDCA-S ksyn; parameters: species or system human
Description: Verification of GCDCA-S ksyn estimated in this study
Literature data on the SULT2A1-mediated sulfation rate of GCDCA were not available. To evaluate the validity of GCDCA-S ksyn estimated by the POPPK model, GCDCA-S ksyn was assumed to be constrained by the synthesis rate of its precursor bile acids, and an inference was made based on the reported ksyn value of the corresponding precursors (CDCA and GCDCA).
In the absence of an inhibitor, ksyn of bile acids in the turnover model is represented by Equation 11.
Under steady-state conditions (where dC/dt=0), and given that the values of CLR of GCDCA-S and its corresponding precursors are relatively small compared to their CLh, ksyn of bile acids is expressed by Equation 12.10,11 It has been reported that the biliary excretion of bile acid sulfates is slower than that of their unsulfated forms,10,12 and assuming CLh,GCDCA-S < CLh,precursors, GCDCA-S ksyn was inferred, as […]
dt = [ksyn − (Cbile acid × CLh + Cbile acid × CLR)] × Vc (Eq.11)
ksyn = Cbile acid × CLh (Eq.12) where C (µM) is plasma concentration, ksyn (µmol/h) is the zero-order synthesis rate, CLh (L/h) is hepatic clearance, CLR (L/h) is renal clearance, VC (L) is the volume of distribution.
Table S5. GCDCA-S ksyn inferred from the ksyn of its corresponding precursors Biomarker Plasma baseline (nM) Denovo ksyn (µmol/h)
Reported value Ref Reported value Ref Notes
Biomarker Plasma baseline (nM) Inferred ksyn (µmol/h)
< 3.0 Based on information 1 […]
< 2.2 Based on information 3 aAveraged Cmean value of the baseline and control groups. bSynthesis rate of unconjugated chenodeoxycholic acid. cAveraged synthesis rate of chenodeoxycholic acid reported in six studies. dSynthesis rate of chenodeoxycholic acid-glycine.

[3] = Population PK turnover model of GCDCA-S (plasma and urine data); format: in vivo, human
Procedure: (§1) Individual plasma and urine data of GCDCA‐S in healthy subjects were obtained from three clinical studies. Tatosian et al.[18] (study #1) consisted of two occasions: on both occasions, a microdose probe drug cocktail for multiple clinically relevant transporters was administered, with a single oral dose of 600 mg rifampicin co‐administered on the second occasion (n = 6; 3 males, 3 females). Willemin et al.[22] (study #2) was a two‐phase, cross‐over study with a 21‐day washout period between the two phases. […] Study #3 consists of unpublished data from the same study design as reported by Willemin et al. (n = 12; 12 males).[22]
(§2) Models were evaluated using visual predictive check (VPC) plots, goodness‐of‐fit (GOF) plots, parameter uncertainty, and changes in objective function. Model visualization and simulations were conducted in MATLAB 2024a (MathWorks, Natick, MA, USA) and Graph Pad Prism 10.2.2 (GraphPad software, La Jolla, CA, USA).
(§3) The structural model for rifampicin was based on our previous report,[33] and represents a one‐compartment model with zero‐order absorption and linear elimination.
Different functions for evaluating diurnal fluctuation (e.g., Bateman, Power function) were investigated and applied to the synthesis rate in the GCDCA‐S model.
(§4) The models for rifampicin, probenecid, and GCDCA‐S incorporated both inter‐individual variability for a number of model parameters (assuming log‐normal distribution) and residual unexplained variability (using a combination of proportional and additive error models).

[4] = monkey, in vivo; cited from earlier work
[5] = human, in vivo; cited from earlier work
[6] = GCDCA-S CLh and fe inferred from other reported clinical DDI studies; format: in vivo, human
Procedure: Verification of GCDCA-S fe estimated in this study
The validity of GCDCA-S CLh and renal excretion fraction (fe) estimated in this study was evaluated by incorporating the GCDCA-S mean plasma concentration profile in other reported clinical DDI studies into the developed POPPK models. In the absence of inhibitors, under steady-state conditions (where dC/dt=0), GCDCA-S ksyn is expressed as shown in Equation 13. In the presence of rifampicin, at t=Tmax (where dC/dt=0), GCDCA-S ksyn is expressed as shown in Equation 14. By solving equation 13 and 14, CLh can be derived as shown in Equation 15. The CLh and fe values inferred from data obtained in each […]
ksyn = Cbaseline × CLh + Cbaseline × CLR (Eq.13)
k = C × CLh + C × CL (Eq.14) […]
CL = CL × Cmax−Cbaseline > CL × Cmax−Cbaseline (Eq.15)
h R Cbaseline − Cmax × 1 R Cbaseline where Cbaseline (µM) is plasma baseline concentration, Cmax (µM) is maximum plasma concentration, ksyn (µmol/h) is the zero-order synthesis rate, CLh (L/h) is hepatic clearance, CLR (L/h) is renal clearance, Cu,RIF (µM) is unbound plasma concentration of rifampicin, Ki,u,OATP1B3 (µM) is unbound inhibition constant against OATP1B3 for rifampicin.
Table S6. GCDCA-S CLh and fe inferred from other reported clinical DDI studies Reported values Inferred values Ref […]
Cbaseline, plasma baseline concentration of GCDCA-S; Cmax, maximum plasma concentration of GCDCA-S; fe, fraction excreted in urine of GCDCA-S; CLh, hepatic clearance of GCDCA-S; CLR, renal clearance […]
a Average concentration from 0 to 24hours. b The CLR value reported by Willemin et al.17 was used for calculation. Even when using the reported CLR values from other studies, the corresponding increase in CLh ensures that the estimated fe value in this calculation remains unchanged.

[7] = cited from earlier work
[8] = Plasma baseline concentration of bile acid biomarkers in clinical studies; format: in vivo, human; conditions: Study #3 (unpublished data); average concentration 0 to 24 hours, no inhibitor
Procedure: as §1
Details of the clinical studies are in Table S1 . […] Simulations were conducted in agreement with the reported study designs. The median (50th percentile) of the predicted concentrations, along with the 90% prediction interval (5th and 95th percentiles), was plotted and compared against the observed data.
Table S1. […]
Cbaseline, GCDCA-S plasma baseline concentration in the absence of inhibitors. a Plasma concentration of subjects with SLCO1B1 c.521TT genotype were used for model verification. b In both occasions, Letermovir 480mg was administered, and it has been reported that single-dose Letermovir led to small increases in GCDCA-S concentrations vs. predose levels. c Calculated based on the reported plasma AUC0-24h.

[9] = parameters: method as in PMID 19131563, PMID 1150035, PMID 955496, PMID 34686523; conditions: healthy human volunteers; cited from earlier work
[10] = cited from earlier work; remark: listed apart in the source
[11] = tested on: OATP1B transporters; conditions: in vitro; cited from earlier work
[12] = Population PK model of probenecid (plasma data); format: in vivo, human; conditions: population estimate (RSE%)
Procedure: as §1, §2, §3, §4

[13] = final model (without sex effect), population estimate (RSE%)
[14] = model with sex effect, population estimate (RSE%)
[15] = information 2 (CDCA, average of six studies) and 3 (chenodeoxycholic acid-glycine)
[16] = averaged Cmean value of the baseline and control groups

C[C@H](CCC(=O)NCC(=O)O)[C@H]1CC[C@H]2[C@@H]3[C@H](O)C[C@@H]4C[C@H](OS(=O)(=O)O)CC[C@]4(C)[C@H]3CC[C@]12C [GCDCA‐S, Glycochenodeoxycholic acid 3‐O‐sulfate]
difference in plasma concentrations, chronic kidney disease patients relative to healthy individuals [1]: no significant difference
Inferred ksyn ([2]; based on information 1): < 3.0 µmol/h
Inferred ksyn ([2]; based on information 2): < 2.8 µmol/h
Inferred ksyn ([2]; based on information 3): < 2.2 µmol/h
fraction excreted in urine (f e) ([3]; estimated from POP-PK model): < 5%
V c,GCDCA–S ([3]; final model (without sex effect), fixed at value initially estimated from the POP-PK model): 4.8 L and 4.8 (FIXED) L
CL h,GCDCA–S [3, 13]: 15 (13) L/h
ksyn [3, 13]: 1.0 (18) μmol/h
biliary excretion as share of elimination ([3]; from POP-PK model): ~ 95% and > 95%
Vc, GCDCAS ([3]; model with sex effect, fixed): 4.8 L
CLR, GCDCAS [3, 14]: 0.31 (8) L/h
CLh, GCDCAS [3, 14]: 14 (13) L/h
COVSEX (fractional change in ksyn in women relative to men) [3, 14]: 0.065 (404)
ksyn [3, 14]: 1.0 (18) μmol/h
fraction excreted in urine (f e) [4]: < 1%
CLR [5]: 0.37 L/h
fe (inferred) ([6]; from data of ref 2): < 6.6%
fe (inferred) ([6]; from data of ref 3): < 6.9%
fe (inferred) ([6]; from data of ref 4): < 3.3%
fe (inferred) ([6]; from data of ref 16): < 3.1%
Plasma baseline ([7]; human, in vivo): 85 nM
Cbaseline [8]: 87 nM

C[C@H](CCC(=O)O)[C@H]1CC[C@H]2[C@@H]3CC[C@@H]4C[C@H](OS(=O)(=O)O)CC[C@]4(C)[C@H]3CC[C@]12C [lithocholic acid sulfate]
fraction excreted in urine (f e) [9]: < 5%

CC(CCC(=O)NCC(=O)O)C1CCC2C3C(O)CC4CC(O)CCC4(C)C3CCC12C (centres unmarked) [GCDCA, glycochenodeoxycholic acid]
Denovo ksyn [10, 15]: 14 µmol/h
Plasma baseline [7, 16]: 540 nM

CCCN(CCC)S(=O)(=O)c1ccc(C(=O)O)cc1 [PROB, probenecid]
inhibition of OATP1B transporters [11]: weakly inhibits
clearance ([12]; both sexes, human, plasma, oral, 500 mg): 15.8 mL/min
V PROB [12]: 17 (10) L
ka PROB ([12]; 500 mg oral approx. every 6 h): 1.1 (37) /h

C[C@H](CCC(=O)O)[C@H]1CC[C@H]2[C@@H]3[C@H](O)C[C@@H]4C[C@H](O)CC[C@]4(C)[C@H]3CC[C@]12C [CDCA, chenodeoxycholic acid]
Denovo ksyn [10, 15]: 17 µmol/h
Denovo ksyn ([10]; synthesis rate of unconjugated chenodeoxycholic acid (information 1)): 18 µmol/h
Plasma baseline [7, 16]: 510 nM
